# Test results as given in patent US20180236016A1, “NEUROTRANSMITTER AND BRAIN MODULATING ORAL DELIVERY SYSTEM FOR ENHANCEMENT OF COGNITIVE FUNCTIONS AND ENERGY” (Steady Nutrition LLC, priority 2017, published 2018).
# Legend:
# [1] = in vivo; cited from earlier work
# [2] = Sedimentation / precipitation of theobromine in the filled product; assay type: physicochemical; details: in the emulsions of Example 3
# Protocol: 2000 ml of conventional water based energy drink supplements were produced by blending all ingredients below, heating to 170 F and cooling to ambient temperature. About 30 ml of each composition were filled into HDPE plastic bottles. Example 1A contained 210 mg caffeine, 460 mg taurine, 120 mg N Acetyl L-Tyrosine, 300 mg glucuronolactone/30 ml serving. The water activity was 0.95; water content was 86% and pH of 2.90. […] Products were filled into 30 ml HDPE bottles and capped.
# For each formulation, 1000 g batches were made. Milk fat and cocoa butter were weighted up and pre-blended at the specified amounts, then heated up to 130 F in a processing vessel. Water, mono and diglycerides, sugar, glycerin, cocoa powder and other optional ingredients were added Caffeine, theobromine, glucuronolactone, taurine and N acetyl L-tyrosine were mixed in. The admixture was heated up to 170-180 F for about 5 minutes and then cooled to 100 F. The water activity was adjusted to 0.85 or lower by the addition of glycerin. The entire admixture was homogenized at 1,000 psi for example 3A and at to 3,000 psi for example 3B and 3C. […] Water activity readings were 0.81, 0.82 and 0.72 for example 3A, 3B and 3C respectively. The pH readings were 5.8, 5.3 and 6.7 for example 3A, 3B and 3C respectively. Viscosity readings were 110, 170 and 250 centipoise for example 3A, 3B and 3C respectively.
# [3] = cited from earlier work
precipitation of theobromine [2],Compound,impact is felt in [1] [min],half-life [1] [h],water solubility [3],fat / lipid solubility [3]
,"Cn1c(=O)c2c(ncn2C)n(C)c1=O [caffeine, reference compound]",15 to 30,,,
not precipitated,Cn1cnc2c1c(=O)[nH]c(=O)n2C [theobromine],,7 to 12,not water soluble,
,Phosphatidylcholine,,,not water soluble,only lipid soluble
,Phosphatidylserine [PS],,,not water soluble,only lipid soluble
